US8895695B2, “Template-fixed beta-hairpin peptidomimetics with CXCR4 antagonizing activity” (priority 2003, dated 2014)
Like-named read-outs stand apart in the source and are kept apart here. Bridge positions count the residues as written; N and C are the ends. Square brackets hold non-standard residues; d marks the D form. Peptide text beside a SMILES is read from it. * marks the point of attachment. Decanoyl(3,6,9-trioxa) = COCCOCCOCC(=O)*; 2Nal = N[C@@H](Cc1ccc2ccccc2c1)C(=O)O; Cit = NC(=O)NCCC[C@H](N)C(=O)O; Dab = NCC[C@H](N)C(=O)O; Dap = NC[C@H](N)C(=O)O

Experiments:
CXCR4 = CXCR4 (Homo sapiens, UniProt P61073); assay: Ca2+-assay method 2 (Flexstation, SDF-1 induced calcium mobilization); format: cell-based; set-up: expressed in transfected cells; host or cells: mouse pre-B cell line 300-19; conditions: method 2 (Ex. 54-160), mouse pre-B cell line 300-19 with human CXCR4, 10 nM SDF-1
Protocol: 2.2. Ca^2+-Assay: CXCR4-Antagonizing Activity of the Peptides.
The cells were batch loaded with the Calcium 3 Assay kit (Molecular Devices) in assay buffer (Hanks Balanced salt solution, HBSS, 20 mM HEPES, pH 7.4, 0.1% BSA) for 1 h at room temperature and then 200,000 labeled cells were dispensed into black 96 well assays plates (Costar No. 3603). A 20-fold concentrated solution of peptide in assay buffer was added to the cells and the whole plate was centrifuged to settle the cells to the bottom of the wells. Calcium mobilization induced by 10 nM stromal-derived factor-1 (SDF-1) was measured in the Flexstation 384 (excitation, 485 nM; emission, 525 nM) for 90 seconds. A maximal change in fluorescence response above baseline was used to calculate antagonist activity. The data for dose response curves (antagonist concentration versus % maximum response) were fitted to a four parameter logistic equation using SoftmaxPro 4.6 (Molecular Devices), from which IC50% values were calculated.

in vitro = conditions: human
Protocol: Each peptide concentration was assayed in triplicate. […] Wells were then washed once with PBS and subsequently 100 μl MTT reagent (0.5 mg/mL in medium RPMI1640 and, respectively, DMEM) was added to the wells. This was incubated at 37° C. for 2 hours and subsequently the medium was aspirated and 100 μl isopropanol was added to each well. […] For each concentration averages were calculated from triplicates. The percentage of growth was calculated as follows: (OD595peptide-OD595Tz-OD595Empty well)/(OD595Tz-OD595Empty well)×100% and was plotted for each peptide concentration.
‘CCR5’ cells were cultured in DMEM medium with 4500 mg/ml glucose, 10% fetal bovine serum (FBS), supplemented with 50 U/ml Penicillin and 50 μg/ml Streptomycin (Pen/Strept.). Hut/4-3 cells were maintained in RPMI medium, 10% FBS, supplemented with Pen/Strept. and 10 mM HEPES. HELA cells and CCRF-CEM cells were maintained in RPMI1640 plus 5% FBS, Pen/Strept and 2 mM L-Glutamine. Cos-7 cells were grown in DMEM medium with 4500 mg/ml glucose supplemented with 10% FCS, Pen/Strept. and 2 mM L-Glutamine. All cell lines were grown at 37° C. at 5% CO2.

[1] = test system: human red blood cells (hRBC); assay: Hemolysis; format: cell-based
Protocol: The peptides were tested for their hemolytic activity against human red blood cells (hRBC). Fresh hRBC were washed three times with phosphate buffered saline (PBS) by centrifugation for 10 min at 2000×g. Peptides at a concentration of 100 μM were incubated with 20% v/v hRBC for 1 hour at 37° C. The final erythrocyte concentration was approximately 0.9×10^9 cells per ml. A value of 0% resp. 100% cell lysis was determined by incubation of the hRBC in the presence of PBS alone and respectively 0.1% Triton X-100 in H2O. The samples were centrifuged and the supernatant was 20-fold diluted in PBS buffer and the optical density (OD) of the sample at […] was measured. The 100% lyses value (OD540H2O) gave an OD540 of approximately 1.3-1.8. Percent hemolysis was calculated as follows: (OD540peptide/OD540H2O)×100%.

[2] = read-out: IC50 (nM) Ca^2+ assay
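Wherever GI50 is given: MTT reduction read as absorbance at 595 nm, blank-corrected and expressed as percent growth relative to the time-zero cell reading, triplicate wells per concentration.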

CXCR4, sequence (P61073 whole entry): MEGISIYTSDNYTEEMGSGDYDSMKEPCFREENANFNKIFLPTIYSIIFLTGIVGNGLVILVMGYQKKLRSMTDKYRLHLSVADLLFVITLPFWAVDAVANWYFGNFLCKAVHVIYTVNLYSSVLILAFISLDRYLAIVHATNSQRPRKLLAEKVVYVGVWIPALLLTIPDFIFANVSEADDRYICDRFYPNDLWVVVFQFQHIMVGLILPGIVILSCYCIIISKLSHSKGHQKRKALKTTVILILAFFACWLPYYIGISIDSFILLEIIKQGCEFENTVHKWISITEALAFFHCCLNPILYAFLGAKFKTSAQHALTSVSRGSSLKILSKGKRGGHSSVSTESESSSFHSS

Structure (SMILES) | IC50 (CXCR4; [2]) [nM] | GI50 at 48 h (in vitro) [nM] | Hemolysis at 100 μM [1] [%] | IC50 (CXCR4; IC50 (nM) Ca^2+ assay) [nM]
C[C@@H](O)[C@@H]1NC(=O)[C@H]2CCCN2C(=O)CNC(=O)[C@H](CCCNC(=N)N)NC(=O)[C@@H]2CSSC[C@H](NC(=O)[C@H](Cc3ccc4ccccc4c3)NC(=O)[C@H](CCCNC(=N)N)NC1=O)C(=O)N[C@@H](Cc1ccc(O)cc1)C(=O)N[C@@H](CCC(N)=O)C(=O)N[C@@H](CCCCN)C(=O)N1CCC[C@@H]1C(=O)N1CCC[C@H]1C(=O)N[C@@H](Cc1ccc(O)cc1)C(=O)N[C@@H](CCCNC(=N)N)C(=O)N[C@@H](CCCNC(N)=O)C(=O)N2 [Ex. 56] (cyclo(YR[Cit]CRG[dP]TR[2Nal]CYQK[dP]P); disulfide 4-11) | 0.74 | 60000 | – | –
N=C(N)NCCC[C@@H]1NC(=O)[C@H](CCCNC(=N)N)NC(=O)[C@H]2CCCN2C(=O)CNC(=O)[C@H](CCN)NC(=O)[C@@H]2CSSC[C@H](NC(=O)[C@H](Cc3c[nH]c4ccccc34)NC1=O)C(=O)N[C@@H](Cc1ccc(O)cc1)C(=O)N[C@@H](CCC(N)=O)C(=O)N[C@@H](CCCCN)C(=O)N1CCC[C@@H]1C(=O)N1CCC[C@H]1C(=O)N[C@@H](Cc1ccc(O)cc1)C(=O)N[C@@H](CCCNC(=N)N)C(=O)N[C@@H](CCCNC(N)=O)C(=O)N2 [Ex. 111] (cyclo(YR[Cit]C[Dab]G[dP]RRWCYQK[dP]P); disulfide 4-11) | – | > 100000 | 0 | –
N=C(N)NCCC[C@@H]1NC(=O)[C@@H]2CSSC[C@H](NC(=O)[C@H](Cc3ccc4ccccc4c3)NC(=O)[C@H](CCCNC(=N)N)NC(=O)[C@H](CCCNC(=N)N)NC(=O)[C@H]3CCCN3C(=O)CNC1=O)C(=O)N[C@@H](Cc1ccc(O)cc1)C(=O)N[C@@H](CCC(N)=O)C(=O)N[C@@H](CCCCN)C(=O)N1CCC[C@@H]1C(=O)N1CCC[C@H]1C(=O)N[C@@H](Cc1ccc(O)cc1)C(=O)N[C@@H](CCCNC(=N)N)C(=O)N[C@@H](CCCNC(N)=O)C(=O)N2 [Ex. 115] (cyclo(RR[2Nal]CYQK[dP]PYR[Cit]CRG[dP]); disulfide 4-13) | 2.7 | – | 0.1 | –
N=C(N)NCCC[C@@H]1NC(=O)[C@@H]2CSSC[C@H](NC(=O)[C@H](Cc3c[nH]c4ccccc34)NC(=O)[C@H](CCCNC(=N)N)NC(=O)[C@H](CCCNC(=N)N)NC(=O)[C@H]3CCCN3C(=O)CNC1=O)C(=O)N[C@@H](Cc1ccc(O)cc1)C(=O)N[C@@H](CCCNC(N)=O)C(=O)N[C@@H](CCCCN)C(=O)N1CCC[C@@H]1C(=O)N1CCC[C@H]1C(=O)N[C@@H](Cc1ccc(O)cc1)C(=O)N[C@@H](CCCNC(=N)N)C(=O)N[C@@H](CCCNC(N)=O)C(=O)N2 [Ex. 128] (cyclo(YR[Cit]CRG[dP]RRWCY[Cit]K[dP]P); disulfide 4-11) | 4.5 | – | – | –
N=C(N)NCCC[C@@H]1NC(=O)[C@@H]2CSSC[C@H](NC(=O)[C@H](Cc3ccc4ccccc4c3)NC(=O)[C@H](CCCNC(=N)N)NC(=O)[C@H](CCCNC(=N)N)NC(=O)[C@H]3CCCN3C(=O)CNC1=O)C(=O)N[C@@H](Cc1ccc(O)cc1)C(=O)N[C@@H](CCC(N)=O)C(=O)N[C@@H](CCCCN)C(=O)N1CCC[C@@H]1C(=O)N1CCC[C@H]1C(=O)N[C@@H](Cc1ccc(O)cc1)C(=O)N[C@@H](CCCNC(=N)N)C(=O)N[C@@H](CCCNC(N)=O)C(=O)N2 [Ex. 132] (cyclo(RR[2Nal]CYQK[dP]PYR[Cit]CRG[dP]); disulfide 4-13) | – | 76000 | 0 | –
N=C(N)NCCC[C@@H]1NC(=O)[C@@H]2CSSC[C@H](NC(=O)[C@H](Cc3ccc4ccccc4c3)NC(=O)[C@H](CCCNC(=N)N)NC(=O)[C@H](CN)NC(=O)[C@H]3CCCN3C(=O)CNC1=O)C(=O)N[C@@H](Cc1ccc(O)cc1)C(=O)N[C@@H](CCCNC(N)=O)C(=O)N[C@@H](CCCCN)C(=O)N1CCC[C@@H]1C(=O)N1CCC[C@H]1C(=O)N[C@@H](Cc1ccc(O)cc1)C(=O)N[C@@H](CCCNC(=N)N)C(=O)N[C@@H](CCCNC(N)=O)C(=O)N2 [Ex. 135] (cyclo(YR[Cit]CRG[dP][Dap]R[2Nal]CY[Cit]K[dP]P); disulfide 4-11) | – | 30000 | 0.1 | –
COCCOCCOCC(=O)NCC[C@@H]1NC(=O)[C@H]2CCCN2C(=O)CNC(=O)[C@H](CCCNC(=N)N)NC(=O)[C@@H]2CSSC[C@H](NC(=O)[C@H](Cc3c[nH]c4ccccc34)NC(=O)[C@H](CCCNC(=N)N)NC1=O)C(=O)N[C@@H](Cc1ccc(O)cc1)C(=O)N[C@@H](CCCNC(N)=O)C(=O)N[C@@H](CCCCN)C(=O)N1CCC[C@@H]1C(=O)N1CCC[C@H]1C(=O)N[C@@H](Cc1ccc(O)cc1)C(=O)N[C@@H](CCCNC(=N)N)C(=O)N[C@@H](CCCNC(N)=O)C(=O)N2 [Ex. 142] (cyclo(YR[Cit]CRG[dP][Dab](Decanoyl(3,6,9-trioxa))RWCY[Cit]K[dP]P); disulfide 4-11) | – | – | – | 96.9
C[C@@H]1NC(=O)[C@H](CCCNC(=N)N)NC(=O)[C@@H]2CSSC[C@H](NC(=O)[C@H](Cc3c[nH]c4ccccc34)NC(=O)[C@H](CCCNC(=N)N)NC(=O)[C@H](CCCNC(=N)N)NC(=O)[C@H]3CCCN3C1=O)C(=O)N[C@@H](Cc1ccc(O)cc1)C(=O)N[C@@H](CCCNC(N)=O)C(=O)N[C@@H](CCCCN)C(=O)N1CCC[C@@H]1C(=O)N1CCC[C@H]1C(=O)N[C@@H](Cc1ccc(O)cc1)C(=O)N[C@@H](CCCNC(=N)N)C(=O)N[C@@H](CCCNC(N)=O)C(=O)N2 [Ex. 143] (cyclo(YR[Cit]CRA[dP]RRWCY[Cit]K[dP]P); disulfide 4-11) | 0.9 | 46000 | – | –
CC(C)C[C@@H]1NC(=O)[C@@H]2CCCN2C(=O)[C@H]2CCCN2C(=O)[C@H](CCCCN)NC(=O)[C@H](CCC(N)=O)NC(=O)[C@H](Cc2ccc(O)cc2)NC(=O)[C@@H]2CSSC[C@H](NC(=O)[C@H](CCCNC(N)=O)NC(=O)[C@H](CCCNC(=N)N)NC1=O)C(=O)N[C@@H](CCCNC(=N)N)C(=O)NCC(=O)N1CCC[C@@H]1C(=O)N[C@@H](CCCNC(=N)N)C(=O)N[C@@H](CCCNC(=N)N)C(=O)N[C@@H](Cc1ccc3ccccc3c1)C(=O)N2 [Ex. 144] (cyclo(LR[Cit]CRG[dP]RR[2Nal]CYQK[dP]P); disulfide 4-11) | 0.18 | – | – | –
C[C@@H](O)[C@@H]1NC(=O)[C@H](CCCNC(=N)N)NC(=O)[C@H](Cc2ccc(O)cc2)NC(=O)[C@@H]2CCCN2C(=O)[C@H]2CCCN2C(=O)[C@H](CCCCN)NC(=O)[C@H](CCCNC(N)=O)NC(=O)[C@H](Cc2ccc(O)cc2)NC(=O)[C@@H]2CSSC[C@H](NC1=O)C(=O)N[C@@H](CCCNC(=N)N)C(=O)NCC(=O)N1CCC[C@@H]1C(=O)N[C@@H](CCCNC(=N)N)C(=O)N[C@@H](CCCNC(=N)N)C(=O)N[C@@H](Cc1ccc(O)cc1)C(=O)N2 [Ex. 146] (cyclo(YRTCRG[dP]RRYCY[Cit]K[dP]P); disulfide 4-11) | 0.24 | – | – | –
N=C(N)NCCC[C@@H]1NC(=O)[C@@H]2CSSC[C@H](NC(=O)[C@H](Cc3ccc4ccccc4c3)NC(=O)[C@H](CCCNC(=N)N)NC(=O)[C@H](CCCNC(=N)N)NC(=O)[C@H]3CCCN3C(=O)CNC1=O)C(=O)N[C@@H](Cc1ccc(O)cc1)C(=O)N[C@@H](CCCNC(N)=O)C(=O)N[C@@H](CCCCN)C(=O)N[C@H]1CSSC[C@H](NC(=O)[C@H](Cc3ccc(O)cc3)NC(=O)CNC(=O)[C@H](CCCCN)NC(=O)[C@H](Cc3ccc(O)cc3)NC1=O)C(=O)N[C@@H](Cc1ccc(O)cc1)C(=O)N[C@@H](CCCNC(=N)N)C(=O)N[C@@H](CCCNC(N)=O)C(=O)N2 [Ex. 154] (cyclo([2Nal]CY[Cit]KCYKGYCYR[Cit]CRG[dP]RR); disulfide 2-15, 6-11) | – | – | – | 9.3
N=C(N)NCCC[C@@H]1NC(=O)[C@@H]2CSSC[C@H](NC(=O)[C@H](Cc3c[nH]c4ccccc34)NC(=O)[C@H](CCCNC(=N)N)NC(=O)[C@H](CCCNC(=N)N)NC(=O)[C@H]3CCCN3C(=O)CNC1=O)C(=O)N[C@@H](Cc1ccc(O)cc1)C(=O)N[C@@H](CCC(N)=O)C(=O)N[C@@H](CCCCN)C(=O)N[C@H]1CSSC[C@H](NC(=O)[C@H](Cc3ccc(O)cc3)NC(=O)CNC(=O)[C@H](CCCCN)NC(=O)[C@H](Cc3ccc(O)cc3)NC1=O)C(=O)N[C@@H](Cc1ccc(O)cc1)C(=O)N[C@@H](CCCNC(=N)N)C(=O)N[C@@H](CCCNC(N)=O)C(=O)N2 [Ex. 155] (cyclo(CRG[dP]RRWCYQKCYKGYCYR[Cit]); disulfide 1-8, 12-17) | – | – | – | 0.46
N=C(N)NCCC[C@@H]1NC(=O)[C@@H]2CSSC[C@H](NC(=O)[C@H](Cc3c[nH]c4ccccc34)NC(=O)[C@H](CCCNC(=N)N)NC(=O)[C@H](CCCNC(=N)N)NC(=O)[C@H]3CCCN3C(=O)CNC1=O)C(=O)N[C@@H](Cc1ccc(O)cc1)C(=O)N[C@@H](CCCNC(=N)N)C(=O)N[C@@H](CCCCN)C(=O)N[C@H]1CSSC[C@H](NC(=O)[C@H](Cc3ccc(O)cc3)NC(=O)CNC(=O)[C@H](CCCCN)NC(=O)[C@H](Cc3ccc(O)cc3)NC1=O)C(=O)N[C@@H](Cc1ccc(O)cc1)C(=O)N[C@@H](CCCNC(=N)N)C(=O)N[C@@H](CCCCN)C(=O)N2 [Ex. 160] (cyclo(CRG[dP]RRWCYRKCYKGYCYRK); disulfide 1-8, 12-17) | – | – | – | 0.38
